What is called melting point is the temperature, or range, at which the solid turns liquid.

Each structure is given as a SMILES string. Bounds are passed on as bounds.

Melting point data for 88 molecules are collected here from a melting point compilation (Tetko et al.; mined from patent text by program, amines drawn as free bases though some values may be those of a salt).

`CNCCN(C)C(=O)[C@@H]1CCCN1S(=O)(=O)c1ccc(Cl)c(COc2cccc3c(-n4ccnc4)cc(C)nc23)c1Cl` registered a melting point of 116 °C.
Next, `CCCCC(CC)CNCCCCOc1ccc2ccccc2c1` (stereo not drawn): 94 °C; `Fc1cccc(F)c1C1=N[C@@H](c2ccc(-c3ccc(S)cc3)cc2)CO1`: 133 to 135 °C.
The value for `COc1ccc([N+](=O)[O-])cc1C=C1COc2ccc(OCc3ccccc3)cc2C1=O` was 156 to 157 °C; that for `CCOC(=O)c1c(C)nsc1NC(=O)NC` was 187 to 189 °C.
Next, `O=CC=C(c1ccccc1)c1ccccc1`: 45 to 46.5 °C.
In turn, `Brc1ccn2nc(N3CCCC3)nc2c1` yielded a melting point of 170 to 172 °C.
The molecule `O=C(O)c1ccc(-c2coc(-c3ccc(Cl)cc3)n2)cc1` yielded a melting point of 288 to 289 °C.
The value for `CNC(=O)c1ccc(C=CC(=O)NCC(=O)N(C)c2ccc(C)c(CCl)c2C)cc1` was 232 °C; that for `COC(=O)C(=C(C)NCC(O)CO)c1nc(NC(C)=O)c([N+](=O)[O-])nc1Cl` (stereo not drawn) was 70 to 73 °C; that for `Cc1cc(=O)c2ccc(OCC(O)CCl)cc2o1` (stereo not drawn) was 104 to 106 °C.
Next, `O=C(NCc1noc(-c2c3ccccc3nn2CCn2ccnc2)n1)c1ccccc1`: 167 to 168 °C; `CC(C)c1cccc(C(C)C)c1NC(=S)NC1CCCC(C(F)(F)F)C1` (stereo not drawn): 67 to 75 °C; `COC(=O)C1C(C)OC(=O)C(C)C1NC(=O)OCc1ccccc1` (stereo not drawn): 144 to 146 °C.
With `C=CCOC(=O)OCN1C(=O)C(c2cn(C)c3ccccc23)=C(c2cn(C)c3cc([N+](=O)[O-])ccc23)C1=O`, the melting point is 191 to 194 °C.
The value for `CCc1nc(N)nc(N)c1-c1ccc(N(C)C)c([N+](=O)[O-])c1` was 256 to 258 °C; that for `Cc1cccc(C(=O)NC(Nc2c(Nc3cccnc3Cl)c(=O)c2=O)C(C)(C)C)c1` (stereo not drawn) was 238 to 239 °C.
The value for `C=C(C)c1ccc(C2=NC(=O)C(C)(C(=C)C)N2)nc1` (stereo not drawn) was 123 to 125 °C.
`COC(=O)c1cc(C(=O)OC)nc(O)n1`: the melting point was in the range of 186 to 188 °C.
As for `CN(Cc1cccc(-c2ccc(CC3SC(=O)NC3=O)cc2)c1)C(=O)c1ccc(-c2ccc(O)cc2)cc1` (stereo not drawn), the melting point fell in the range of 211 to 213 °C.
Next, `O=C1c2ccccc2N(c2ccccc2)CN1O`: 156 to 160 °C; `Cc1cccc2ncc(C(=O)NC3CCCCCC3)c(=O)n12`: 172 to 174 °C; `CCOP(=O)(Cc1cccc(NC(=O)C2=Cc3cc(C4CCCCC4)ccc3CC2)c1)OCC`: 54 to 56 °C.
The value for `COC(=O)Cc1csc2cc(-c3ccccc3)c(C=O)n12` was 118 to 120 °C; that for `CCCCCc1c(CO)nc(C(C)C)c(CO)c1-c1ccc(F)cc1` was 135 to 136 °C; that for `CC=C1CCC2C3CC=C4CC(O[Si](CC)(CC)CC)CC(O[Si](CC)(CC)CC)C4(C)C3CCC12C` (stereo not drawn) was 81 to 82 °C.
Next, `Fc1ccc(-c2onc3c(CBr)cccc23)cc1`: 145 to 148 °C.
The molecule `C#CCNC(=O)c1c(Br)cccc1[Si](C)(C)C` returned a melting point of 120 to 121 °C.
Next, `CCOC(=O)C1=C(C(C)C)Nc2n[nH]cc2C1c1ccccc1Cl` (stereo not drawn): 211 to 213 °C.
Next, `COC(=O)c1ccc(=O)n(CCNC(=O)c2cnc3ccccc3c2)c1`: 174 to 175 °C; `CCOC(=O)c1cc2c(O)c(C(=O)OCC)n(C)c2nc1C(=O)OCC`: 129 to 130 °C; `CC(C)(C)[N+]([O-])=Cc1cc(Cl)cc(Cl)c1O`: 103 °C.
Next, `CCCCc1ccc2scc(NC(=O)C(=O)OC)c(=O)c2c1`: 192 to 194 °C; `O=S1(=O)NC(C2CCCCC2)Nc2ccc(S(=O)(=O)c3ccccc3)cc21` (stereo not drawn): 243 to 245 °C.
The molecule `CC1(C)CCC(C)(C)c2cc(-c3cc(-c4ccc(C(=O)O)cc4)ccc3OCCCCCCCO)ccc21` returned a melting point of 168 to 172 °C.
Next, `CCOP(=O)(Cc1nnc2c(=O)[nH]c3c4ccccc4ccc3n12)OCC`: 195 to 197 °C; `COc1cc(OC)nc(Oc2cccc(Oc3ccccc3)c2C(=O)O)n1`: 116 to 118 °C.
`CC(C)(C)c1cc(C=C2SC(=S)N(N)C2=O)ccc1O` yielded a melting point of more than 225 °C.
The value for `Cc1c(Nc2ncccc2C(=O)O)cccc1C(F)F` was 232 to 234 °C.
The value for `CN(C)c1cccc(-c2nc3c(N[C@H]4[C@@H](C(N)=O)[C@@H]5C=C[C@H]4C5)ccnc3[nH]2)c1` was 200 to 204 °C.
Next, `COCCOC(=O)C1=C(C)NC(C)=C(C(=O)OCC(F)(F)F)C1c1cccc([N+](=O)[O-])c1` (stereo not drawn): 169 °C.
`COc1ccc2cc3c(=O)n(C)cc(C(=O)NCCN(C)C)c3nc2c1Cl` displayed a melting point of 209 to 212 °C.
Molecule `O=c1[nH]cc(C=Cc2cccnc2)c2ccccc12` displayed a melting point of 222 to 224 °C.
`CC(C)OC(=O)C=Cc1ccc(N)cc1`: the melting point is 78 to 80 °C.
Next, `CC1=C(C(=O)O)C(c2cccc([N+](=O)[O-])c2)N(C(=O)N(C)C)C(=O)N1` (stereo not drawn): 193 to 195 °C; `Cc1c(C(=O)NNC(C)(C)C)ccc2c1CCCO2`: 146 to 148 °C; `CCNC(=O)c1c([Si](C)(C)C)ccc(-c2ccccc2)c1Cl`: 134 to 135 °C.
The value for `Cc1ccc(S(=O)(=O)NC(=O)N2CC2C#N)cc1` (stereo not drawn) was 156 to 158 °C; that for `CSc1ccc2ccc(C(=O)O)cc2c1` was 217 °C; that for `CC(F)(C(=O)O)c1ccc(OS(=O)(=O)C(F)(F)F)cc1` (stereo not drawn) was 91 to 94 °C.
Next, `Nc1ccccc1-c1cccc(C(=O)O)c1`: 170 °C; `CCOC(=O)C(C)(C)n1c(=O)[nH]c2ccc(F)cc2c1=O`: 167 to 169 °C.
Consider `CCOCCc1nc(NS(=O)(=O)c2cccc(Cl)c2C)sc1CN(C)C`, for which the melting point is 152 to 153 °C.
The value for `CC(C)N(Cc1ccc(Cl)cc1)C(=O)Nc1ccccc1` was 109 to 111 °C; that for `CC(C)(C)OC(=O)N1C[C@@H]2OCc3cnnn3[C@H]2C1` was 155 to 157 °C; that for `CS(=O)(=O)c1ccc(C2=C(c3ccc(F)cc3)CC3(CCCC3)C2)cc1` was 142 to 143 °C.
Consider `O=C(OCC(O)c1ccccc1)c1ccc(-c2ccc(OCCCCCCO)cc2)cc1` (stereo not drawn), for which the melting point lay within 148 to 150 °C.
Next, `CCCc1nnc(N2N=C(c3ccc([N+](=O)[O-])c(C)c3)c3cc4c(cc3C[C@H]2C)OCO4)s1`: 143 to 145 °C.
Next, `CCCn1c(CCO)nc2c(N)nc3cc(OCCCNC(=O)C(C)C)ccc3c21`: 190 to 192 °C.
As for `O=C(Cc1ccc(-c2ccc(F)cc2F)c(F)c1)NO`, the melting point lay within 149 to 150 °C.
Next, `COc1cc(OC)n2nc(S(=O)(=O)Nc3c(Cl)cccc3Cl)nc2n1`: 232 to 234 °C; `COc1cccc(OC)c1C(=O)NCC(=O)N1c2ccccc2N(Cc2ccccc2)C(=O)[C@H]2CCC[C@H]21` (relative stereo): 182 to 184 °C; `CCOC(=O)C1=NN(c2ccc(Cl)cc2)C(c2ccc(Cl)cc2)C1` (stereo not drawn): 128 to 130 °C.
Next, `CCN(CC)Cc1cc(NC(=O)Nc2ccc(Oc3cc(NC)ncn3)cc2)cc(C(F)(F)F)c1`: 68 to 70 °C.
The value for `c1ccc2c(N3CCCC3)nc(N3CCCC3)nc2c1` was 127 to 129 °C; that for `CCCCCCCCCCCCCCOc1ccc(CC(=O)Nc2cccc(C(=O)OCC)c2)cc1` was 91 to 94 °C.
With `COc1c(Cl)ccnc1C(=O)O`, the melting point fell in the range of 116 to 117 °C.
`CCc1cc(N(C)Cc2ccc3oc(-c4ccccc4C#N)c(Br)c3c2)n2nccc2n1` came in with a melting point of 130 to 136 °C.
Next, `CCn1c(N)c(C(=O)NC)c(=O)c2ccc(-c3ccc(NS(C)(=O)=O)cc3)nc21`: more than 300 °C; `CC(C)(C)NC(=O)C(C)(C)N(OC(C)(C)C#N)C(C)(C)C`: 77 to 79 °C; `CCC(C)n1nnc2c(N=C=S)cccc21` (stereo not drawn): 77 to 78 °C.
The value for `COc1cc(N2CCC(N3CCCN(CCO)CC3)CC2)ccc1Nc1ncc2ccc(-c3ccccc3OC)n2n1` was 72 to 80 °C.
Consider `Cc1noc(NS(=O)(=O)c2ccccc2-c2ccc(-c3ncoc3C)cc2)c1C`, for which the melting point lay within 86 to 96 °C.
Next, `CCc1nc2ccccc2c2ccc(F)cc12`: 105 to 106 °C; `CN1CCC23c4c5ccc(O[Si](C)(C)C(C)(C)C)c4OC2C(O[Si](C)(C)C(C)(C)C)C=CC3C1C5` (stereo not drawn): 118 to 119 °C.
The value for `CC(CSc1nc(-c2ccc(F)cc2)c(-c2ccc(F)cc2)[nH]1)Sc1nc(-c2ccc(F)cc2)c(-c2ccc(F)cc2)[nH]1` (stereo not drawn) was 243 to 245 °C; that for `O=C(Nc1ccccn1)C(CC1CCCC1)c1ccc(Cl)c([N+](=O)[O-])c1` (stereo not drawn) was 48 to 52 °C; that for `CC(C)(C)NC(=O)NC(Cc1ccccc1)C(=O)Nc1c(F)cc(F)cc1F` (stereo not drawn) was 205 to 206 °C.
The value for `Cc1nc2c(N)nc3ccccc3c2n1OC(C)C` was 243 °C; that for `Cc1nc2c(N)nc3ccccc3c2n1CCCNC(=O)OC(C)(C)C` was 112 to 115 °C; that for `NS(=O)(=O)c1cc2nc(O)c(O)nc2c2ccccc12` was more than 300 °C.
Regarding `COC(=O)CC(=O)c1nccn1C`, the melting point lay in the range of 142 to 143 °C.
Next, `CCN(CC)CC1CCCCN1CC(C)(C)NC(=O)N1c2ccccc2C(=O)Nc2cccnc21` (stereo not drawn): 160 to 162 °C; `Nc1c(-c2nc(-c3ccco3)n[nH]2)cnn1CCc1ccccc1`: 175 to 176 °C.
Next, `CCCCOc1cc(C(=O)O)cc(N)c1C(=O)c1ccc(C)cc1`: 170 to 172 °C.
Next, `COc1ccc(/C(C)=C/c2ccc(C(=O)O)cc2)cc1C12CC3CC(CC(C3)C1)C2`: 307 to 308 °C.
`CC(=O)N1C(=O)C(C(=O)Cc2ccccc2)c2ccccc21` (stereo not drawn) returned a melting point of 149 to 151 °C.
Next, `O=C(O)c1cc2c(cc1C(=O)O)COCC2`: 179 to 181 °C.
